In patent US20110045097A1, “SOLID PHARMACEUTICAL COMPOSITION COMPRISING IRBESARTAN” (KRKA, d.d. Novo mesto, priority 2006, published 2011):
Counter-ions that a name gives are not always drawn.

Columns and labels:
[1] = Solubility in dissolution media / solvents; assay type: physicochemical; settings: 0.01 M HCl or simulated gastric juice (pH=1.2)
Description: WO 05/025566 is directed to irbesartan-containing oral pharmaceutical formulations having improved dissolution profiles, and especially dissolution of 80% or more 15 minutes after dosing and of 90% or more 30 minutes after dosing.

[2] = as described in WO 05/025566; cited from earlier work

Solubility as compared to the free irbesartan [1] | SMILES | Solubility in alcohol and CH2Cl2 [2] | Solubility in water [2]
higher | CCCCC1=NC2(CCCC2)C(=O)N1Cc1ccc(-c2ccccc2-c2nnn[nH]2)cc1 [irbesartan-HCl, irbesartan hydrochloride] | – | –
– | CCCCC1=NC2(CCCC2)C(=O)N1Cc1ccc(-c2ccccc2-c2nnn[nH]2)cc1 [irbesartan, 2-Butyl-3-[[2′-(1H-tetrazol-5-yl) [1,1′-biphenyl]-4-yl]methyl]-1,3-diazaspiro[4,4]-non-1-en-4-one] | slightly soluble | insoluble
